Experimental data published in publication PMC4668384 (Scientific Reports, 2015).
Converted amounts (≈) assume the structure as drawn. Where two headings read alike, the source gives them in different places.

How the values were obtained:
[1] = system: V. virens pB-Vv51wt transformants (P-F); test: Tebuconazole sensitivity, mycelial growth on amended PSA, pB-Vv51wt transformants; format: cell-based, Villosiclava virens; conditions: Ustilaginoidea virens
[2] = system: V. virens isolate FJ4-1b (wild type); test: Tebuconazole sensitivity, mycelial growth on amended PSA, wild type isolate; format: cell-based, Villosiclava virens; conditions: Ustilaginoidea virens, 336 h, 28 °C, 14 days
Description: Mycelial plugs (6 mm) were transferred in triplicates from the margins of 14-day old colonies to 9 cm petri dishes containing nonamended or tebuconazole-amended PSA. Dishes were incubated at 28 °C for 14 days in darkness. The average colony diameter was measured in two perpendicular directions, and the EC50 value was determined by regressing percentage growth inhibition against the log of fungicide concentration.

[3] = biological target: T1, truncated wild type VvCYP51 (Ustilaginoidea virens (Villosiclava virens), UniProt X2GGV8); test: UV-visible spectral binding assay, truncated wild type protein
T1 sequence (X2GGV8 29-528): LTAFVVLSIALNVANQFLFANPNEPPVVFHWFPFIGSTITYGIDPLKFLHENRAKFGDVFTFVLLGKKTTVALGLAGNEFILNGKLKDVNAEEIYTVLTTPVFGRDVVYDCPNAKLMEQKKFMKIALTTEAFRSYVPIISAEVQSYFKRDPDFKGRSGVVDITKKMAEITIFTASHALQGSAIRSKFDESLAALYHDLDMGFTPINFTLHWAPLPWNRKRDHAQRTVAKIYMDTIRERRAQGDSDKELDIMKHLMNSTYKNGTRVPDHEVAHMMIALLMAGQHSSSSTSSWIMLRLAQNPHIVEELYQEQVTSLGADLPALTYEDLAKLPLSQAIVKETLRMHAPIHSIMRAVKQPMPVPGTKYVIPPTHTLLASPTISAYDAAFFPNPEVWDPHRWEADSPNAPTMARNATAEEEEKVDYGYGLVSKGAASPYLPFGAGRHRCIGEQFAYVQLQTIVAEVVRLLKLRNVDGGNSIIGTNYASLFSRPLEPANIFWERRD

[4] = system: VvCYP51 gene expression in isolate FJ4-1b; test: Induction of VvCYP51 gene expression by tebuconazole (real-time PCR); conditions: 0.1 μg/ml tebuconazole for 6 h, versus untreated control
Description: The wild type isolates, mutant, and transformants were grown in 50 ml of PSB at 28 °C for 7 days on a 160 rpm orbital shaker. Total RNA was extracted from mycelia using the TRIzole reagent (Aidlab, Beijing, China), then digested with DNase I nuclease (Takara, Dalian, China) to remove DNA contamination. The cDNA was synthesized using a RevertAid First Strand cDNA Synthesis Kit employing the oligo(dT)18 primer (Thermo Fisher Scientific, Waltham, MA). The expression of the VvCYP51 gene was evaluated by real-time PCR using the primer pair RealCYP51-F/RealCYP51-R. Expression was normalized with the α-tubulin gene. Relative expression was calculated using the comparative Ct (2^−ΔΔCt) method[51]. […] Real-time PCR amplifications of VvCYP51 were performed in a CFX96 Real-Time PCR Detection System (Bio-Rad Laboratories Inc., Hercules, CA) using SYBR Green I fluorescent dye. Amplifications were conducted in a 20-μl volume containing 10 μl of SYBR qPCR Mix (Aidlab, Beijing, China), 1 μl of RT product and 0.2 μM of each primer. All samples were in triplicates with the following profile: an initial preheat at 95 °C for 2 min, followed by 40 cycles at 95 °C for 20 s, 60 °C for 20 s and 72 °C for 20 s. The entire experiment starting with RNA extractions was repeated four times.

SMILES: CC(C)(C)C(O)(CCc1ccc(Cl)cc1)Cn1cncn1 (stereo not drawn) [tebuconazole]
- EC50 ([1]; 336 h, read-out: EC50 value, transformant P-F 4, mycelial growth on PSA, 28 °C, 14 days): 0.11 µg/mL (≈ 0.357 µM)
- EC50 ([1]; 336 h, read-out: EC50 value, transformant P-F 7, mycelial growth on PSA, 28 °C, 14 days): 0.24 µg/mL (≈ 0.78 µM)
- EC50 ([1]; 336 h, read-out: EC50 value, transformant P-F 8, mycelial growth on PSA, 28 °C, 14 days): 0.13 µg/mL (≈ 0.422 µM)
- EC50 ([1]; 336 h, read-out: EC50 value, transformant P-F 9, mycelial growth on PSA, 28 °C, 14 days): 0.15 µg/mL (≈ 0.487 µM)
- EC50 ([1]; 336 h, read-out: EC50 value, transformant P-F 10, mycelial growth on PSA, 28 °C, 14 days): 0.12 µg/mL (≈ 0.39 µM)
- EC50 ([1]; 336 h, read-out: EC50 value, transformant P-F 13, mycelial growth on PSA, 28 °C, 14 days): 0.11 µg/mL (≈ 0.357 µM)
- EC50 ([1]; 336 h, read-out: EC50 value, transformant P-F 14, mycelial growth on PSA, 28 °C, 14 days): 0.28 µg/mL (≈ 0.91 µM)
- EC50 ([1]; 336 h, read-out: EC50 value, transformant P-F 15, mycelial growth on PSA, 28 °C, 14 days): 0.13 µg/mL (≈ 0.422 µM)
- EC50 ([1]; 336 h, read-out: EC50 value, transformant P-F 16, mycelial growth on PSA, 28 °C, 14 days): 0.13 µg/mL (≈ 0.422 µM)
- EC50 ([1]; 336 h, read-out: EC50 value, transformant P-F 17, mycelial growth on PSA, 28 °C, 14 days): 0.2 µg/mL (≈ 0.65 µM)
- EC50 ([1]; 336 h, read-out: EC50 value, transformant P-F 20, mycelial growth on PSA, 28 °C, 14 days): 0.27 µg/mL (≈ 0.877 µM)
- EC50 ([1]; 336 h, read-out: EC50 value, transformant P-F 22, mycelial growth on PSA, 28 °C, 14 days): 0.15 µg/mL (≈ 0.487 µM)
- EC50 ([1]; 336 h, read-out: EC50 value, transformant P-F 23, mycelial growth on PSA, 28 °C, 14 days): 0.2 µg/mL (≈ 0.65 µM)
- EC50 ([1]; 336 h, read-out: EC50 value, transformant P-F 25, mycelial growth on PSA, 28 °C, 14 days): 0.15 µg/mL (≈ 0.487 µM)
- EC50 ([1]; 336 h, read-out: EC50 value, transformant P-F 26, mycelial growth on PSA, 28 °C, 14 days): 0.18 µg/mL (≈ 0.585 µM)
- EC50 ([1]; 336 h, read-out: EC50 value, transformant P-F 28, mycelial growth on PSA, 28 °C, 14 days): 0.13 µg/mL (≈ 0.422 µM)
- EC50 ([1]; 336 h, read-out: EC50 value, transformant P-F 29, mycelial growth on PSA, 28 °C, 14 days): 0.26 µg/mL (≈ 0.845 µM)
- EC50 ([1]; 336 h, read-out: EC50 value, transformant P-F 31, mycelial growth on PSA, 28 °C, 14 days): 0.25 µg/mL (≈ 0.812 µM)
- EC50 ([1]; 336 h, read-out: EC50 value, transformant P-F 32, mycelial growth on PSA, 28 °C, 14 days): 0.32 µg/mL (≈ 1.04 µM)
- EC50 ([1]; 336 h, read-out: EC50 value, transformant P-F 33, mycelial growth on PSA, 28 °C, 14 days): 0.12 µg/mL (≈ 0.39 µM)
- EC50 ([1]; 336 h, read-out: EC50 value, transformant P-F 34, mycelial growth on PSA, 28 °C, 14 days): 0.15 µg/mL (≈ 0.487 µM)
- EC50 ([1]; 336 h, read-out: EC50 value, transformant P-F 36, mycelial growth on PSA, 28 °C, 14 days): 0.22 µg/mL (≈ 0.715 µM)
- EC50 ([1]; 336 h, read-out: EC50 value, transformant P-F 37, mycelial growth on PSA, 28 °C, 14 days): 0.11 µg/mL (≈ 0.357 µM)
- EC50 ([1]; 336 h, read-out: EC50 value, transformant P-F 38, mycelial growth on PSA, 28 °C, 14 days): 0.31 µg/mL (≈ 1.01 µM)
- EC50 ([1]; 336 h, read-out: EC50 value, transformant P-F 39, mycelial growth on PSA, 28 °C, 14 days): 0.13 µg/mL (≈ 0.422 µM)
- EC50 ([1]; 336 h, read-out: EC50 value, transformant P-F 40, mycelial growth on PSA, 28 °C, 14 days): 0.21 µg/mL (≈ 0.682 µM)
- EC50 ([1]; read-out: EC50 values (range), range over the 26 pB-Vv51wt transformants): 0.11 to 0.32 µg/mL (≈ 0.357 to 1.04 µM)
- EC50 [2]: 0.04 µg/mL (≈ 0.13 µM)
- Kd ([3]; bound for the three different truncated wild type VvCYP51 proteins, read-out: Kd values): < 40 nM
- Kd ([3]; wild type VvCYP51, −28aa N-terminal truncation, read-out: Kd): 37 ± 2.7 nM
- Kd ([3]; wild type VvCYP51, −42aa N-terminal truncation, read-out: Kd): 34 ± 2.3 nM
- Kd ([3]; wild type VvCYP51, −74aa N-terminal truncation, read-out: Kd): 37 ± 2.5 nM
- increase of expression of VvCYP51 gene [4]: 29.94 fold
